In patent publication US12492208B2, “Crystal of pyrimidine compound” (TAIHO PHARMACEUTICAL CO., LTD., priority 2020, dated 2025):

Key:
[1] = biological target: T1, recombinant human HER2 exon 20 insertion mutant (A775_G776insYVMA) protein (Homo sapiens, UniProt P04626, INS775YVMA); test: Inhibitory action (in vitro) against HER2 exon 20 insertion mutant phosphorylation activity; format: biochemical; settings: pre-incubated 30 minutes, ATP 200 μM, 220 minutes; read-out: HER2ex20insYVMA inhibitory activity IC50 value
T1 construct: purchased SignalChem
From the text: In order to determine conditions for a method of measuring the in vitro inhibitory activity of a compound against HER2 exon 20 insertion mutant phosphorylation activity, as in the case of HER2, ProfilerPro Peptide 22 was used as a substrate. A purified recombinant human HER2 exon 20 insertion mutant (A775_G776insYVMA) protein was purchased from SignalChem. Upon the measurement of the inhibitory activity of the compound, first, the compound (I) obtained according to the method in Synthesis Example 1 was diluted stepwise with dimethyl sulfoxide (DMSO). Subsequently, the HER2 exon 20 insertion mutant protein and the compound (I) in DMSO solution (final concentration of DMSO: 5%) were added into a buffer for the kinase reaction (13.5 mM Tris (pH 7.5), 2 mM dithiothreitol, and 0.009% Tween 20), and the obtained mixture was then pre-incubated at 25° C. for 30 minutes. […] Finally, using LabChip (registered trademark) EZ Reader II (PerkinElmer), an unphosphorylated substrate peptide(S) and a phosphorylated peptide (P) were separated and detected according to microchannel capillary electrophoresis. […]

Ba/F3-HER2insYVMA cells = test: Growth inhibitory activity against HER2 exon 20 insertion mutant expressing cell line; format: cell-based; settings: Mus musculus, 72 h, 3 days, CellTiter-Glo 2.0, read-out: HER2ex20insYVMA cell growth inhibitory activity IC50 value
Protocol: Growth inhibitory activity against the HER2 exon 20 insertion mutant was measured using Ba/F3 cells that were a mouse B lymphocyte precursor cell line, into which a human HER2 exon 20 insertion mutant gene had been introduced. The Ba/F3 cells were maintained in an RPMI-1640 medium (Thermo Fisher Scientific) supplemented with 10% fetal bovine serum (FBS), 100 U/mL penicillin, 100 μg/mL streptomycin (Thermo Fisher Scientific) and 1 ng/mL mouse interleukin-3 (mIL-3) (CST).
Upon evaluation of cell growth inhibitory activity, the Ba/F3-HER2insYVMA cells were suspended in an RPMI-1640 medium supplemented with 10% FBS, 100 U/mL penicillin, and 100 μg/mL streptomycin. The cell suspension was seeded in each well of a 96-well flat-bottom microplate, and was then cultured in a 5% carbon dioxide gas-containing culture vessel at 37° C. for 1 day. The compound (I) obtained according to the method in Synthesis Example 1 was dissolved in DMSO, and was then diluted with DMSO or the medium used in the suspension of the cells. The obtained solution was then added to each well of the culture plate, so that the final concentration of DMSO became 0.2%. […] After completion of the culture for 3 days in the presence of the compound, the cells were counted using CellTiter-Glo 2.0 (manufactured by Promega), and the growth inhibition percentage was then calculated according to the following equation. […]

T1 sequence (P04626 with tags, fused parts or gaps INS775YVMA limits assumed): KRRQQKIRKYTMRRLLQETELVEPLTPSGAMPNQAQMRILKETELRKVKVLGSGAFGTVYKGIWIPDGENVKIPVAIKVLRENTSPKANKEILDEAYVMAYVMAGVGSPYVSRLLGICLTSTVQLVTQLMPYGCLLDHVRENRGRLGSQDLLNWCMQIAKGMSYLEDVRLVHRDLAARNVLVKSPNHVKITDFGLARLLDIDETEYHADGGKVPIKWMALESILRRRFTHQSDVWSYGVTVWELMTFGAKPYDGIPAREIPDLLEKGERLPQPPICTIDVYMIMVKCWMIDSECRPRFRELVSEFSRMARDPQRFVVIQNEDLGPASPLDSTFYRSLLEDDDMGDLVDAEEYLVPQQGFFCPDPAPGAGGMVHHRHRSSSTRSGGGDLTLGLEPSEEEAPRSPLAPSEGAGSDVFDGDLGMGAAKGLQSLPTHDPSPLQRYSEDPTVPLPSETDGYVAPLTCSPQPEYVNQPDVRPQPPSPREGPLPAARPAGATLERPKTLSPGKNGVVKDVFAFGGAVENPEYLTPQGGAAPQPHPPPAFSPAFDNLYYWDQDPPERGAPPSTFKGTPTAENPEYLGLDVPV

C=CC(=O)N1C[C@H](n2c(C#CC3CC3)c(C(=O)N[C@H](C)c3ccccc3)c3c(N)ncnc32)C[C@@H]1C [compound (I), 7-((3R,5S)-1-acryloyl-5-methylpyrrolidin-3-yl)-4-amino-6-(cyclopropylethynyl)-N—((R)-1-phenylethyl)-7H-pyrrolo[2,3-d]pyrimidine-5-carboxamide]
IC50 [1]: < 0.3 nM | IC50 (Ba/F3-HER2insYVMA cells): 29 nM
